Data as given in patent US10265286B2, “Sequelae of cardiopulmonary bypass-induced pulmonary injury” (Vanderbilt University, priority 2016, dated 2019).
Read-outs that look alike come from different tables or passages of the source.

Assays:
Type in all cases: in vivo, human
[1] = Perioperative oral citrulline supplementation in children undergoing congenital cardiac surgery
Protocol: Initial supplementation trials utilized oral citrulline at a dose of 1.9 g/kg before cardiopulmonary bypass, immediately postoperatively and every 12 hours, continuing for 48 hours after surgery.
40 patients with one of the 5 surgical diagnoses identified above were randomized to receive 5 doses of oral citrulline (1.9 grams/kg) vs. placebo. The first dose was administered immediately prior to surgery and the second dose immediately on arrival in the Pediatric ICU after surgery followed every 12 hours×3 doses.

[2] = Intravenous citrulline dose escalation pharmacokinetics in children undergoing congenital cardiac surgery
Protocol: The initial goal was to test the safety and pharmacokinetics of three doses of intravenous citrulline in children undergoing surgical repair of specific congenital heart defects. […] An adverse drop in mean arterial pressure was defined as a greater than a twenty percent decrease from baseline. The baseline postoperative mean arterial blood pressure was calculated as the average of mean arterial blood pressure measurements collected every 5 minutes for the 30 minutes immediately preceding the administration of the postoperative dose or infusion.
The original doses selected were 200, 400, and 600 mg/kg based on data from previous animal studies. The original study design was a 4 arm study using the 3 doses and a placebo control.
After pharmacokinetic modeling, the study design was changed to a bolus dose of 150 mg/kg given in the OR on cardiopulmonary bypass followed 4 hours later by a continuous infusion of 9 mg/kg/hour for 48 hours. Another 9 patients were enrolled. The mean plasma levels of both citrulline and arginine in study patients (+IV citrulline) compared to patients in the observational cohort (−IV citrulline) are depicted in FIGS. 11A-B.
The dose of citrulline was given in the operating room immediately after cannulation and initiation of cardiopulmonary bypass. The overall goal was to achieve a sustained citrulline level of 100 μmol/L or more up to four hours after the initial dose. The four hour time point was selected to allow for the surgical procedure to be completed and the patient to return to the Intensive Care Unit (ICU) postoperatively before further dosing.

[3] = Randomized placebo controlled intravenous citrulline study, 77 patients (plasma citrulline target); settings: citrulline removed by hemofiltration during CPB
From the text: An intravenous citrulline study conducted was a randomized, placebo controlled, double blind study with the primary clinical outcome being length of mechanical ventilation postoperatively and secondarily the incidence of postoperative pulmonary hypertension between the 2 treatment groups (citrulline vs placebo).
A total of 77 patients were enrolled at Vanderbilt Children's Hospital. Patients were screened based on the surgical schedule. Based on this schedule, patients undergoing one of the 5 planned cardiac surgeries included in this study were screened (patients undergoing the Norwood procedure are now excluded at the recommendation of the DSMB).

[4] = Revised dosing protocol study: duration of respiratory support and cardiovascular parameters (Example 8)
From the text: The study in this example was undertaken to test a revised dosing protocol designed to achieve and maintain therapeutic citrulline levels in the face of ultrafiltration and crystalloid replacement. […] The study recruited 22 patients randomized in equal numbers of 11 patients each to placebo and citrulline arms.
Early in the course of the study, it was recognized that one of the two participating centers routinely extubated all patients in the operating room immediately following cessation of cardiopulmonary bypass. This precluded use of the duration of mechanical ventilation as an endpoint. Instead, a post-hoc analysis was applied using the duration of all forms of ventilatory support as a possible endpoint. […] In contrast, contingency table analysis, shown in FIG. 16, did achieve borderline significance. Overall, the results are considered to represent a strong trend.

[5] = Phase IB study: postoperative invasive mechanical ventilation; settings: for patients extubated in the operating room: Site 02
Protocol: The duration of postoperative invasive mechanical ventilation was derived as the time in hours from separation from cardiopulmonary bypass until endotracheal extubation. If a patient required reintubation within 24 hours after extubation, the reintubation time was added in the main analysis. In a second analysis, the reintubation time was not included.

[6] = Phase IB study: composite of invasive mechanical ventilation or inotrope use
From the text: The cessation of positive pressure ventilation and of inotrope therapy are the two principal determinants of readiness for discharge from the intensive care unit. They were combined as a composite variable to serve as an additional effective surrogate endpoint for the duration of ICU stay.
The composite endpoint comprised the longer of the duration of positive pressure ventilatory support or of inotrope therapy. Since inotrope use was only documented until Hour 48 after surgery (end of study medication treatment), patients with inotrope use continuing until Hour 48 and with mechanical ventilation duration of ≤48 h were censored at this time point. If mechanical ventilation was continued beyond the 48-hour time point, the duration of mechanical ventilation was used in the analysis.

[7] = Phase IB study: safety (adverse events, bleeding, laboratory, hemodynamics)
Protocol: Primary safety assessments included hemodynamic monitoring to identify clinically significant hypotension using age-specific limits. Adverse event information was collected, and postoperative bleeding was recorded.
Further safety, laboratory, and clinical assessments were performed from baseline to discharge, secondary clinical variables included: postoperative mechanical ventilation, duration of total respiratory support, hemodynamic improvement, postoperative PVT by echocardiogram, serum creatinine and liver enzymes, inotrope score, duration of chest tube usage, length of intensive care unit stay, length of hospitalization and survival.

NC(=O)NCCCC(N)C(=O)O (stereo not drawn) [Citrulline, 2-amino-5-(carbamoylamino)pentanoic acid]
Plasma citrulline levels ([1]; 5 doses of oral citrulline 1.9 grams/kg, placebo 26): 36 µmol/L | tolerability ([1]; oral 1.9 g/kg before CPB, postoperatively and every 12 hours for 48 hours): well tolerated with no evidence of significant adverse events | peak citrulline level ([2]; 50 mg/kg IV, Patients 6 and 8): approximately 220 μmol/L | peak citrulline level ([2]; 100 mg/kg IV, Patients 9 & 10): 375 µmol/L | four hour levels ([2]; 150 mg/kg IV bolus): 100 µmol/L | peak citrulline level ([2]; 150 mg/kg IV, Patient 13-16): 660 µmol/L | plasma levels achieved ([2]; IV doses 200, 400, and 600 mg/kg): very high | sustained citrulline level suggested by pharmacokinetic modeling ([2]; bolus 150 mg/kg then 4 hours later continuous infusion 9 mg/kg/hr): approximately 100 μmol/L | half-life ([2]; human, plasma, iv, IV bolus doses in children on CPB): ~1.42 h | concentration at 4 hour ([2]; human, plasma, 50 mg/kg IV, Patients 6 and 8, read-out: 4 hour trough level): 40 µM | concentration at 4 hour ([2]; human, plasma, 100 mg/kg IV, Patients 9 & 10, read-out: 4 hour trough): 50 µM | concentration at 4 hour ([2]; human, plasma, 150 mg/kg IV, Patient 13-16, read-out: 4 hour trough): 80 µM | attainment of sustained target plasma citrulline level of 100 μmol/L [3]: did not reach the therapeutic sustained target plasma citrulline level | systolic and diastolic blood pressure versus placebo ([4]; FIG. 18A): No significant change in systolic and diastolic blood pressure | mean arterial pressure versus placebo ([4]; FIG. 18B): No significant change in the mean arterial pressure | patients with Duration of Respiratory Support ≤50 hours ([4]; contingency table, placebo 3): 7 | patients with Duration of Respiratory Support >50 hours ([4]; contingency table, placebo 8): 2 | inotrope scores versus placebo ([4]; particularly from 15 to 18 hours onward following ICU admission (FIG. 17)): markedly better inotrope scores | adverse effects upon hemodynamic parameters ([4]; revised dosing protocol): No adverse effects upon hemodynamic parameters were observed | Duration of invasive mechanical ventilation, Diff (CI) placebo vs citrulline ([5]; Re-intubation time excluded): 19.5 (1.9, 37.2) hours | Duration of invasive mechanical ventilation, Mean ± SD ([5]; Re-intubation time excluded): 5.1 ± 8.15 h | Duration of invasive mechanical ventilation, Median ([5]; Re-intubation time excluded): 0.0 h | Duration of invasive mechanical ventilation, Range ([5]; Re-intubation time excluded): 0.0 to 22.5 h | Duration of invasive mechanical ventilation, Diff (CI) placebo vs citrulline ([5]; Re-intubation time included): 32.0 (−9.5, 73.4) hours | Duration of invasive mechanical ventilation, Median ([5]; Re-intubation time included): 0.0 h | Duration of invasive mechanical ventilation, Range ([5]; Re-intubation time included): 0.0 to 22.5 h | Duration of invasive mechanical ventilation, Mean ± SD ([5]; Re-intubation time included, N = 11): 5.1 ± 8.15 h | Duration of invasive mechanical ventilation, Mean ± SD ([5]; Re-intubation time included, N = 11, listed as citrulline): 5 h | patients extubated in the operating room ([5]; placebo 2): 6 patients | patients extubated in the operating room ([5]; placebo 33%): 100% | Composite duration of invasive mechanical ventilation or inotrope use, Diff (CI) placebo vs citrulline ([6]; Re-intubation time excluded): 17.7 (−1.0, 36.4) hours | Composite duration of invasive mechanical ventilation or inotrope use, Mean ± SD ([6]; Re-intubation time excluded): 14.3 ± 14.06 h | Composite duration of invasive mechanical ventilation or inotrope use, Median ([6]; Re-intubation time excluded): 15.0 h | Composite duration of invasive mechanical ventilation or inotrope use, Range ([6]; Re-intubation time excluded): 0.0 to 47.0 h | Composite duration of invasive mechanical ventilation or inotrope use, Diff (CI) placebo vs citrulline ([6]; Re-intubation time included): 30.2 (−10.8, 71.1) hours | Composite duration of invasive mechanical ventilation or inotrope use, Mean ± SD ([6]; Re-intubation time included): 14.3 ± 14.06 h | Composite duration of invasive mechanical ventilation or inotrope use, Median ([6]; Re-intubation time included): 15.0 h | Composite duration of invasive mechanical ventilation or inotrope use, Range ([6]; Re-intubation time included): 0.0 to 47.0 h | AE hypotension ([7]; citrulline group): 27% | AE tachypnea ([7]; citrulline group): 27% | AE hypertension ([7]; citrulline group, placebo 36%): 27% | AE pleural effusion ([7]; citrulline group, placebo 45%): 36% | patients with at least one treatment-emergent AE ([7]; citrulline group, placebo 73%): 100% | Heart rate ([7]; citrulline vs placebo): consistently higher in the placebo group than the citrulline group | AE leading to death, SAE, AE leading to discontinuation ([7]; in vivo): No AE leading to death, no SAE, and no AE leading to discontinuation | impact on oxygen saturation or systemic arterial blood pressure ([7]; in vivo): no noteworthy impact | post-operative bleeding (length and volume of chest tube drainage) versus placebo ([7]; in vivo): no difference in post-operative bleeding | BUN ([7]; stable in the placebo group, p=0.0111): increased from baseline through to Day 2
